The text below walks through data of US20120309798A1, “Tumour Treatment Agents and Method” (Vivolux AB, priority 2009, published 2012).

The subject of this assay is MCF-7 tumor cells. Briefly: Mode of cell death: time lapse phase contrast microscopy and multiparametric HCS (Arrayscan II). In kind it is cell-based. Here is the method: Multiparametric high content screening assays. To study the cell death characteristics a multi-parametric high content screening (HCS) assay was used (Cellomics cytotoxicity HitKit™) and an HCS assay for measurement of apoptosis, which has been described in detail previously (Lovborg et al., 2004). The cells (1500 cells/well) were seeded into flat-bottomed 96-well plates (Perkin Elmer Inc., Wellesley, Mass.) and were left to attach before addition of drugs. For the cytotoxicity assay the cytotoxicity HitKit™ reagents (Cellomics Inc., Pittsburgh, Pa., USA) was used according to the manufacturer's instructions. Multi-parameter cytotoxicity HitKit™ contains a nuclear dye, a cell permeability dye, and a lysosomal mass/pH indicator. In the apoptosis assay FAM-DEVD-FMK (part of the CaspaTag Kit, Chemicon, Temecula, Calif.) at a final concentration of 20 μM was added one hour before the end of the drug exposure to stain activated caspase-3 and partly caspase-7. The staining solution was removed and the plates were washed twice with PBS followed by a 30 min fixation in 3.7% formaldehyde and nuclear staining with 10 μM Hoechst 33342 (Sigma). Plates were then washed twice. The plates were centrifuged before each aspiration to avoid loss of cells detached due to toxic stimuli. Processed plates were kept at +4° C. for up to 24 h before analysis. Plates were analyzed using the ArrayScan™ HCS software (Cellomics Inc). The system is a computerized automated fluorescence-imaging microscope that automatically identifies stained cells and reports the intensity and distribution of fluorescence in individual cells. Images were acquired for each fluorescence channel, using suitable filters with 20× objective. In each well at least 800 cells were analyzed. Images and data were stored in a Microsoft SQL database.
Phase contrast microscopy. Time lapse phase contrast microscopy was performed using an automated Incucyte phase contrast microscope. MCF-7 cells (10,000/well) were plated on 24-well ImageLock plates (Essen Instruments, Ann Arbor, Mich.) and cultured in RPMI 1640 media containing 10% fetal bovine serum and antibiotics. The plates were immediately placed into IncuCyte imaging system (Essen Instruments). The chamber is designed to fit into a standard, humidified, CO2 incubator in an atmosphere of 5% CO2, and a moving objective allows the cell culture to be stationary while images are captured at different positions from well to well. Images were collected at hourly intervals starting 30 minutes after addition of the plate to the IncuCyte-FLR chamber. Drug treatment was performed 24 hours after the plates were placed in the Incucyte. Cell density was calculated using the Incucyte software. […]

With `COCCCNC(=S)N/N=C\c1ccccn1` [VLX50, N1-(3-methoxypropyl)-2-(pyridylmethylidene)-hydrazine-1-carbothioamide], where the note is “MCF-7, 48-72 h”, the Caspase-3 activity result is reported as “increase”, the Cell density result was “gradual decrease” and the DNA fragmentation entry is “increase”. For the same compound, the “Effect on growth and viability” value (MCF-7, 24 h) was “little or no effect”.
